Data set [1] in a line: Osmotic pressure of saturated verapamil hydrochloride solution / of the blend of verapamil plus osmotic solute (vapor pressure osmometry). In kind it is physicochemical. The settings on record: for π, osmotic pressure of the blend of Sd plus So: verapamil plus the osmotic solute named in the line. The text has this:
(§1) The results of the formulation are given in the accompanying table.

Data set [2] in a line: Solubility of verapamil and of osmotic solutes in a common aqueous fluid.
Source text: as §1

A short description of data set [3]: Cumulative amount of verapamil released over time from formulations with osmotic solutes. In kind it is physicochemical. The settings on record: verapamil formulated with osmotic solute at equilibrium ratio.
Source text: as §1

The mark [4] stands for this setting: in common aqueous fluid with verapamil.

Counter-ions that a name gives are not always drawn.

Turning to `O=C1O[C@H]([C@@H](O)CO)C(O)=C1O` [Ascorbic Acid], the “π, osmotic pressure of the blend of Sd plus So” value in data set [1] is 76.8 atm.

`O=C(O)CC(O)C(=O)O` (stereo not drawn) [Malic Acid]: in data set [2] (setting [4]), the “So, solubility of the osmotic solute” value is 436 mg/mL. `O[C@H]1[C@H](O)[C@@H](O)[C@H](O)[C@@H](O)[C@H]1O` [Inositol]: the “π, osmotic pressure of the blend of Sd plus So” value in data set [1] worked out at 20.6 atm. Besides, the “cumulative amount of verapamil released over time” value in data set [3] is given as “insufficient cumulative amount of verapamil released over time”.

Regarding `O=C(O)CCC(=O)O` [Succinic Acid], in data set [1], the “π, osmotic pressure of the blend of Sd plus So” value is recorded as 22.9 atm. For `COc1ccc(CCN(C)CCCC(C#N)(c2ccc(OC)c(OC)c2)C(C)C)cc1OC` (stereo not drawn) [verapamil, reference compound], the “osmotic pressure of verapamil in the presence of mannitol” value in data set [1] (in the presence of mannitol) was “raised in the presence of mannitol”. Consider `O=C(O)CCC(=O)O` [Disodium Succinate], for which the “π, osmotic pressure of the blend of Sd plus So” value in data set [1] stood at 36.6 atm.

Regarding `O=C(O)C(O)C(O)C(=O)O` (stereo not drawn) [Sodium Tartrate], the “π, osmotic pressure of the blend of Sd plus So” value in data set [1] was 100.0 atm.

Take `O=C[C@H](O)[C@@H](O)[C@@H](O)CO` [L-Arabinose]: the “So, solubility of the osmotic solute” value in data set [2] (common aqueous fluid) was 473 mg/mL. Also, in data set [1], the “π, osmotic pressure of the blend of Sd plus So” value is recorded as 110.3 atm. `O=C(O)CCCCC(=O)O` [Adipic Acid]: the “π, osmotic pressure of the blend of Sd plus So” value in data set [1] was 13.9 atm.

With “Insulin: Insulin, listed as osmotic solute in the table”, the “So, solubility of the osmotic solute” value in data set [2] (setting [4]) came out at 50 mg/mL. For the same compound, the “ST, total solubility of Sd and So” value in data set [2] (verapamil plus osmotic solute in a common aqueous fluid) turned out to be 197 mg/mL. With `O=C[C@H](O)[C@@H](O)[C@@H](O)[C@H](O)CO` [D-Galactose], the “So, solubility of the osmotic solute” value in data set [2] (setting [4]) amounted to 457 mg/mL. Moreover, the “π, osmotic pressure of the blend of Sd plus So” value in data set [1] is listed as 87.1 atm.

As to `OC[C@@H](O)[C@@H](O)[C@H](O)[C@H](O)CO` [Mannitol], in data set [2] (common aqueous fluid), the “So, solubility of the osmotic solute” value came to 219 mg/mL. The “π, osmotic pressure of the blend of Sd plus So” value in data set [1] is reported as 42.8 atm. For `COc1ccc(CCN(C)CCCC(C#N)(c2ccc(OC)c(OC)c2)C(C)C)cc1OC` (stereo not drawn) [Verapamil-HCl, verapamil hydrochloride, reference compound], in data set [1] (at 37° C., vapor pressure osmometry), the “osmotic pressure of a saturated aqueous solution” value is listed as 11 atm. Further, the “π, osmotic pressure” value was found to be 10.9 atm in data set [1] (verapamil-HCl alone), 13.0 atm in data set [1] (verapamil-HCl in AGF) and 13.3 atm in data set [1] (verapamil-HCl in AIF). In the case of `O=C(O)/C=C/C(=O)O` [Fumaric Acid], in data set [2] (common aqueous fluid), the “So, solubility of the osmotic solute” value worked out at 77 mg/mL. Besides, the “π, osmotic pressure of the blend of Sd plus So” value in data set [1] is recorded as 21.4 atm. Regarding `COc1ccccc1OCC(O)CO` (stereo not drawn) [Guaifenesin, reference compound], the “So, solubility of the osmotic solute” value in data set [2] (common aqueous fluid) was found to be 81 mg/mL.

The record behind these values is patent publication US4753802A (Alza Corporation, priority 1986, dated 1988).
